The results in this text go back to patent US6608086B2, “Dihydropyridines and new uses thereof” (Synaptic Pharmaceutical Corporation, priority 1993, dated 2003).

The target in series [1] is human prostatic tissue. Kind of series: In vitro human prostate model: block of phenylephrine-induced contraction of human prostatic tissue. It counts as cell-based. The following applies: In Vitro Human Prostate Model; phenylephrine-induced contraction. From the text:
The protocol for these experiments is given below.
Functional Properties of α1 Antagonists in the Human Prostate
The efficacy of α1 adrenergic antagonists for the treatment of benign prostatic hyperplasia (BPH) is related to their ability to elicit relaxation of prostate smooth muscle. An index of this efficacy can be obtained by determining the potency of al antagonists to antagonize the contraction of human prostatic tissue induced by an α1 agonist “in vitro”. Furthermore, by comparing the potency of subtype selective α1 antagonists in binding assays using human α1 receptors with their potency to inhibit agonist-induced smooth muscle contraction, it is possible to determine which of the α1 adrenergic receptor subtypes is involved in the contraction of prostate smooth muscle.
Prostatic adenomas were obtained at the time of surgery from patients with symptomatic BPH. […] The baths were maintained at 37° C. and continuously oxygenated with 5% CO2 and 95% O2. Isometric tension was measured with a Grass Instrument FT03 force transducer interfaced with a computer. Tissue strips were contracted with varying concentrations of phenylephrine after incubating for 20 minutes in the absence and presence of at least three different concentrations of antagonist. Dose-response curves for phenylephrine were constructed, and the antagonist potency (pA2) was estimated by the dose-ratio method. The concentration of some antagonists in the tissue bath was assessed by measuring the displacement of [3H]prazosin by aliquots of the bath medium, using membrane preparations of the cloned human α1C receptor. This control was necessary to account for losses of antagonist due to adsorption to the tissue bath and/or metabolism during the time the antagonists were equilibrated with the prostate tissue.

Series [2] deals with canine prostate. Kind of series: In vivo dog prostate model: inhibition of phenylephrine-induced increase in urethral pressure in anesthetized dogs. The following applies: In Vivo Dog Prostate Model; phenylephrine-induced contraction, urethral pressure.
Description: Protocol for In Vivo Evaluation of Compounds in Canine Prostate
Adult male mongrel dogs more than one year of age were chosen for the model. After induction of general anesthesia using sodium pentobarbital (25 mg/Kg i.v.), the animals were intubated and allowed to breathe spontaneously. An arterial catheter was inserted via the femoral artery to monitor blood pressure and i.v. line was inserted into the leg for fluid and drug administration. A constant saline infusion was maintained at 40 to 50 mL/h. Next, a seven cm lower abdominal incision was made one cm lateral to the penis.
The bladder, prostate and a short segment of urethra were identified and isolated, without damage to the nerves or blood vessels. A cystotomy incision was made through which the pressure catheter was inserted and positioned in the prostatic urethra. The cystotomy was not closed, but the wound edges were sutured to stop bleeding. The tip of the catheter was positioned just distal to the prostate and secured in place with an O-silk tie around the urethra. A second holding suture at the bladder neck secured the catheter in place.
Fluid, either water or saline, was pumped by a Harvard infusion pump at 0.1 mL/min through a Gould pressure transducer into the catheter. The fluid exists at a port in the catheter which is in the prostatic urethra. Occlusion of the port, by contraction of the prostate, blocks the flow and a pressure wave is created. This pressure is transmitted back through the catheter to the transducer which is attached to a Gould recorder. Squeezing the prostate gland caused an increase in urethral pressure which verified the correct position in the urethra.
The compounds were tested as follows: A dose response curve was first generated for phenylephrine alone, in doses ranging from one μg/Kg to 50 μg/Kg. The absolute rise in urethral pressure was recorded for each dose and the next dose given when the urethral pressure returned to baseline. Phenylephrine dose response curves were generated in all animals tested. Increasing doses of compounds were then given, and the phenylephrine dose response curve repeated in the prepense of each dose of the compound. No animal received more than one compound; four animals were used to test each compound. To test for tachyphylaxis, four separate dogs were challenged with repeated phenylephrine doses for six hrs, the usual length of each experiment. From the dose-effect data, the inhibition constant (Ki) and the median-effect dose (ED50) were calculated. Both the Ki and ED50 values given are calculated by using microcomputer software and an IBM-PC.
Series [3] has as its target T1, L-type calcium channel (Rattus norvegicus, UniProt P22002).
T1 construct: membrane fragments of rat cardiac muscle; from tissue; host or cells: rat cardiac muscle membranes
Nature of the series: Competition binding of [3H]nitrendipine to membrane fragments of rat cardiac muscle. The following applies: [3H]nitrendipine, rat cardiac muscle membranes.

Series [4] concerns the target T2, α2A receptor (Homo sapiens, UniProt P08913).
T2 construct: host or cells: LM(tk-) cells, line L-α2A
T2 sequence (P08913 1-465): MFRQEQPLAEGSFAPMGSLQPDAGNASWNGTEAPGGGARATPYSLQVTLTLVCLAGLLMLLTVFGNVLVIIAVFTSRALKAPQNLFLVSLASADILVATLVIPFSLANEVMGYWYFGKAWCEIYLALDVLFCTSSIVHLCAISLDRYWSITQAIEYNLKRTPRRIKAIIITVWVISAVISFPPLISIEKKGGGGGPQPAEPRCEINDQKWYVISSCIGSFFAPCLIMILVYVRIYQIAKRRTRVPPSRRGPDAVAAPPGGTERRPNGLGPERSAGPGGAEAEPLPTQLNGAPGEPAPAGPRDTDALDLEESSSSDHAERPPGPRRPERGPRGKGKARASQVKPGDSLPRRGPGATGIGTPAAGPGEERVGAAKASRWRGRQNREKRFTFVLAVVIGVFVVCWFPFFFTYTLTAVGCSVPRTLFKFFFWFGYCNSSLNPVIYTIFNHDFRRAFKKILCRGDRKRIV
Kind of series: Competition binding, [3H]rauwolscine, human α2A receptor. The following applies: [3H]rauwolscine. The text has this: (§1) The protocols for these experiments are given below.
(§2) α2 Human Adrenergic Receptors:
(§3) To determine the potency of […], antagonists at the α2 receptors, LM(tk−) cell lines stably transfected with the genes encoding the α2A, α2B, and α2C receptors were used. The cell line expressing the α2A receptor is designated L-α2A, and was deposited on Nov. […] The cell line expressing the α2B receptor is designated L-NGC-α2B, and was deposited on Oct. […] The cell line expressing the α2C receptor is designated L-α2C, and was deposited on Nov. […] Cell lysates were prepared as described above (see Radioligand Binding Assays), and suspended in 25 mM glycylglycine buffer (pH 7.6 at room temperature). Equilibrium competition binding assay were performed using [3H]rauwolscine (0.5 nM), and nonspecific binding was determined by incubation with 10 μM phentolamine. The bound radioligand was separated by filtration through GF/B filters using a cell harvester.

Series [5] addresses T3, α2B receptor (Homo sapiens, UniProt P18089).
T3 construct: host or cells: LM(tk-) cells, line L-NGC-α2B
T3 sequence (P18089 1-450): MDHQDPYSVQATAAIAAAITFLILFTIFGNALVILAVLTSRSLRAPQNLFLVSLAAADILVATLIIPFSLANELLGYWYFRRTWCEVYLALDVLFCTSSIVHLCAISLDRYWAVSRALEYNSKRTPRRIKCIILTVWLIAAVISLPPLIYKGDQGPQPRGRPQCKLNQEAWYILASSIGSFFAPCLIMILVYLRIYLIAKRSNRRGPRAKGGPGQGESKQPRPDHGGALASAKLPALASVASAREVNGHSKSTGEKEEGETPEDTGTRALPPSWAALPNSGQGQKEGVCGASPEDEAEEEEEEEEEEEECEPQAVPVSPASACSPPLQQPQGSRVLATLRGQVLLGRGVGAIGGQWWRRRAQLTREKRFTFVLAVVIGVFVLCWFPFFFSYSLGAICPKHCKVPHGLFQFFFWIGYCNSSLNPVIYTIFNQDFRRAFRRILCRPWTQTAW
Nature of the series: Competition binding, [3H]rauwolscine, human α2B receptor. The following applies: [3H]rauwolscine.
Description: as §1, §2, §3

For series [6], the target named is T4, α2C receptor (Homo sapiens, UniProt P18825).
T4 construct: host or cells: LM(tk-) cells, line L-α2C
T4 sequence (P18825 1-462): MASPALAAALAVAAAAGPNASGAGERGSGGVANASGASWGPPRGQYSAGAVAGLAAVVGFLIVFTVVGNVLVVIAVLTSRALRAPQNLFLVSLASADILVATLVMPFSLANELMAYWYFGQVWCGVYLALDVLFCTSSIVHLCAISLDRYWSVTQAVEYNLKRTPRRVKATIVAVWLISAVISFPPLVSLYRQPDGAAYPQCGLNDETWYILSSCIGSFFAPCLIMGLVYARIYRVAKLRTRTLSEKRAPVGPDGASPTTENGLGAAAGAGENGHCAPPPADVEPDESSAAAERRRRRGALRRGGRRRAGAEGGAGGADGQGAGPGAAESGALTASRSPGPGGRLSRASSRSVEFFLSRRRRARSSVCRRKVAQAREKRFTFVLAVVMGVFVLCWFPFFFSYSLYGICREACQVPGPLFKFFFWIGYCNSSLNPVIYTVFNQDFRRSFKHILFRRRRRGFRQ
Nature of the series: Competition binding, [3H]rauwolscine, human α2C receptor. The following applies: [3H]rauwolscine.
Description: as §1, §2, §3

The mark [7] stands for this setting: mean, read-out: PKi Ca (converted).
[8] abbreviates: human receptor, LM(tk-) cell lysates, mean, read-out: PKi alpha-2 2a (converted).
[9] abbreviates: human receptor, LM(tk-) cell lysates, mean, read-out: PKi alpha-2 2b (converted).
The mark [10] stands for this setting: human receptor, LM(tk-) cell lysates, mean, read-out: PKi alpha-2 2c (converted).

Counter-ions that a name gives are not always drawn. Like-named read-outs stand apart in the source and are kept apart here.

T1 sequence (P22002 whole entry, other chains not shown, the tested form may be a part): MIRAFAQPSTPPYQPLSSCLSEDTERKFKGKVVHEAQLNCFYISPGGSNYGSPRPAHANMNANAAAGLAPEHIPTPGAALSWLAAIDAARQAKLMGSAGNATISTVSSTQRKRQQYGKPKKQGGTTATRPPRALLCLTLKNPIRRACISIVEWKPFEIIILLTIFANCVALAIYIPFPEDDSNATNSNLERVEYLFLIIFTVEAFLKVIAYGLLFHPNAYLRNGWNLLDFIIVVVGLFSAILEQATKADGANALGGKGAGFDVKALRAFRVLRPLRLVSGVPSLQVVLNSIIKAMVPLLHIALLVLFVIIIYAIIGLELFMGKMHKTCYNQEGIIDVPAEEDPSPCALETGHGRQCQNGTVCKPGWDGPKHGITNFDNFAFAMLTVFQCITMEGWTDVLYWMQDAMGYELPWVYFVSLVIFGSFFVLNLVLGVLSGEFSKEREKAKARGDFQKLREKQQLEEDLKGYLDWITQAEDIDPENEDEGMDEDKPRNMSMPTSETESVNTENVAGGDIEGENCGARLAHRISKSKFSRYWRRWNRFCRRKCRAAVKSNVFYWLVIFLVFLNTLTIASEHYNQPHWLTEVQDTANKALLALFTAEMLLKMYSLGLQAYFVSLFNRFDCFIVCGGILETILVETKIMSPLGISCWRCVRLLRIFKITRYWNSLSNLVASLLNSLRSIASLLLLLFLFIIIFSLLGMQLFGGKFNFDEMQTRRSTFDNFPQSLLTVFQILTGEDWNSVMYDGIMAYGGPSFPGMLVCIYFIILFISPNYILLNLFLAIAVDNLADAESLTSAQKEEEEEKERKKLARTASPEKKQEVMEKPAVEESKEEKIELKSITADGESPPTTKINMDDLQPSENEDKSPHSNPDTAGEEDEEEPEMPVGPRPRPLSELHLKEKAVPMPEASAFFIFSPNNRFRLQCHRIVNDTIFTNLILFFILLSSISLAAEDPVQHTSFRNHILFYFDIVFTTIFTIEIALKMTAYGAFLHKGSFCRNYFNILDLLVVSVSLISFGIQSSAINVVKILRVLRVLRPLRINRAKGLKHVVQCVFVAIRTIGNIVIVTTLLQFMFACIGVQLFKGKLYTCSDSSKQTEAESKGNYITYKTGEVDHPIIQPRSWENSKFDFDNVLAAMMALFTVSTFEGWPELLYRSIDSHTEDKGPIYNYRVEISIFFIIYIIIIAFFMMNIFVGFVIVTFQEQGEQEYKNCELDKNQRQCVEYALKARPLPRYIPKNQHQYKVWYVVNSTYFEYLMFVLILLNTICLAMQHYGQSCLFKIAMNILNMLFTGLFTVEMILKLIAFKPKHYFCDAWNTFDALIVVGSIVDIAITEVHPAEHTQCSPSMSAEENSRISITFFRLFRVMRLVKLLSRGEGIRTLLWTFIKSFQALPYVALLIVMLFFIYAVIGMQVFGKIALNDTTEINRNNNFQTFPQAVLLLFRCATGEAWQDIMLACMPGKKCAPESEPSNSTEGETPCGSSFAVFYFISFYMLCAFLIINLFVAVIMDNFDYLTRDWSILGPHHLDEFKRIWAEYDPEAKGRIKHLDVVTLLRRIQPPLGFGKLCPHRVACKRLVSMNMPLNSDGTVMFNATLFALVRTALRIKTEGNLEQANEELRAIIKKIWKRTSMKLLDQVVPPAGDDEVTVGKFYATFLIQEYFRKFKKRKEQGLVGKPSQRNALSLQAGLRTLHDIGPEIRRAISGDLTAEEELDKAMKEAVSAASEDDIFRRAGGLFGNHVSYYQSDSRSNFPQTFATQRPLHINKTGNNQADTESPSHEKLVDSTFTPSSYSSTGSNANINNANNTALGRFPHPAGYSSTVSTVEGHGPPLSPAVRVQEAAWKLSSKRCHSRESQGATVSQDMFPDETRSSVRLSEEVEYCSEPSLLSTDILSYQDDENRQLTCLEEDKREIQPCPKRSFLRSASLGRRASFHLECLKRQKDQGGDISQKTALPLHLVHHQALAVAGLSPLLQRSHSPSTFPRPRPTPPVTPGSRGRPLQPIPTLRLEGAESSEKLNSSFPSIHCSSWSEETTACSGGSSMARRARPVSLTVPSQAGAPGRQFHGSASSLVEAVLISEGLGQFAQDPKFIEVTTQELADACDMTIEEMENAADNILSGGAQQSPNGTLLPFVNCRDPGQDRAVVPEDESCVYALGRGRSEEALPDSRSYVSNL
T1 sequence (P54290 25-944 partner limits assumed, other chains not shown): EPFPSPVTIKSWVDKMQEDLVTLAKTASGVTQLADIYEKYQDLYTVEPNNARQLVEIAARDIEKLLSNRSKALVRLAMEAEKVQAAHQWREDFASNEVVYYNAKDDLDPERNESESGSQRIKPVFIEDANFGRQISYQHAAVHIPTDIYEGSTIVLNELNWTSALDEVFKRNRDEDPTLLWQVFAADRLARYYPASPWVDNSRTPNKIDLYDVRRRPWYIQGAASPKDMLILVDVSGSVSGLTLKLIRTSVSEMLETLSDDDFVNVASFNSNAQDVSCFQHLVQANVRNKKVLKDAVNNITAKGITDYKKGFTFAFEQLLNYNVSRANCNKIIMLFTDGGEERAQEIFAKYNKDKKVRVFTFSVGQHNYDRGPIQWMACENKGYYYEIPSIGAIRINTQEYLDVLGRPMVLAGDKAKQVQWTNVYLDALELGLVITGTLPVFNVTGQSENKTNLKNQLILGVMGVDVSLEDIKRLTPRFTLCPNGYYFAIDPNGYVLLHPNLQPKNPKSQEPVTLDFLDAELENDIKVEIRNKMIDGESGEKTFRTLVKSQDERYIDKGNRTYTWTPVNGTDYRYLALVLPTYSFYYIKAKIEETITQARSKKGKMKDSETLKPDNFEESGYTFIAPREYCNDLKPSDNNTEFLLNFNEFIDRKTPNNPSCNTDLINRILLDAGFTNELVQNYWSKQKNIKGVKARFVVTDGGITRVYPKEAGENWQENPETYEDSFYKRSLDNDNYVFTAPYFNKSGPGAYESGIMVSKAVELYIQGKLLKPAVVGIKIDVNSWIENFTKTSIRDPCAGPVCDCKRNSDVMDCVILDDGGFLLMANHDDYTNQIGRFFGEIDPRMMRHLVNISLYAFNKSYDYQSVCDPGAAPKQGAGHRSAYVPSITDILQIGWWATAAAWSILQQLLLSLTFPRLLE
T1 sequence (P54290 945-1091 partner limits assumed, other chains not shown): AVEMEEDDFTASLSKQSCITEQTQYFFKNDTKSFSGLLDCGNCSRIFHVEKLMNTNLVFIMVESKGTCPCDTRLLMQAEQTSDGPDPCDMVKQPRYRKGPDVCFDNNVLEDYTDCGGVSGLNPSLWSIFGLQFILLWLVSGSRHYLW

Regarding `COC(=O)C1=C(C)NC(C)=C(C(=O)NCCCN2CCC(c3ccccc3)(c3ccccc3)CC2)C1c1ccc([N+](=O)[O-])cc1` (racemic) [(±)-93, hydrochloride hydrate], the pKi (commonly the negative decadic logarithm of the Ki, by convention in mol/L) in series [1] is 7.28 ± 0.4. In series [2], this molecule returned a Ki of 7.6 nmol/kg.
As to `CCOC(=O)C1(c2ccccc2)CCN(CCCNC(=O)C2=C(C)NC(C)=C(C(C)=O)C2c2ccc([N+](=O)[O-])cc2)CC1` (racemic) [Example 202, 5-Acetyl-1,4-dihydro-2,6-dimethyl-3-{N-[3-(4-ethoxycarbonyl-4-phenylpiperidin-1-yl)propyl]}carboxamido-4-(4-nitrophenyl)pyridine], the melting point (commonly the temperature of the solid-liquid transition) is 89 to 90 °C. The Ki in series [3] (setting [7]) is 263000 nM. Moreover, the Ki in series [4] (setting [8]) is 4470 nM. In addition, in series [5] (setting [9]), the Ki is 912 nM. Further, the Ki in series [6] (setting [10]) is 2140 nM.
For the molecule `CNC(=O)C1=C(C)NC(C)=C(C(=O)NCCCN2CCC(c3ccccc3)CC2)C1c1ccc([N+](=O)[O-])cc1` (centres unmarked) [Example 56, 1,4-Dihydro-2,6-dimethyl-5-(N-methyl) carboxamido-4-(4-nitrophenyl)-3-{N-[3-(4-phenylpiperidin-1-yl)propyl]}carboxamidopyridine hydrochloride hemihydrate], the Ki in series [3] (SEM and n in lines below, read-out: pKi Ca (converted)) was 6460 nM; in series [4] (LM(tk-) cell line L-α2A, SEM and n in lines below, read-out: pKi alpha-2 2a (converted)), 269 nM; in series [5] (LM(tk-) cell line L-NGC-α2B, SEM and n in lines below, read-out: pKi alpha-2 2b (converted)), 129 nM; in series [6] (LM(tk-) cell line L-α2C, SEM and n in lines below, read-out: pKi alpha-2 2c (converted)) it was 186 nM.
`COC(=O)C1(c2ccccc2)CCN(CCCNC(=O)C2=C(C)NC(C)=C(C(N)=O)C2c2ccc([N+](=O)[O-])cc2)CC1` (centres unmarked) [Example 198, 5-Carboxamido-1,4-dihydro-2,6-dimethyl-3-{N-[3-(4-methoxycarbonyl-4-phenylpiperidin-1-yl)propyl]}carboxamido-4-(4-nitrophenyl)pyridine]: the melting point is 120 to 121 °C. Besides, in series [3] (setting [7]), the Ki was 178000 nM. Besides, in series [4] (setting [8]), the Ki is 1120 nM. For the same molecule, the Ki in series [5] (setting [9]) is 1070 nM. Besides, in series [6] (setting [10]), the Ki is 2450 nM.
Turning to `COC(=O)C1(c2ccccc2)CCN(CCCNC(=O)C2=C(C)NC(C)=C(C(C)=O)C2c2ccc([N+](=O)[O-])cc2)CC1` (centres unmarked) [Example 201, 5-Acetyl-1,4-dihydro-2,6-dimethyl-3-{N-[3-(4-methoxycarbonyl-4-phenylpiperidin-1-yl)propyl]}carboxamido-4-(4-nitrophenyl)pyridine], the melting point lay within 94 to 95 °C. Besides, the Ki in series [3] (setting [7]) was 67600 nM. In series [4] (setting [8]), the Ki was 4470 nM. In series [6] (setting [10]), the Ki is 3240 nM.
